The text below walks through data of ChEMBL document CHEMBL5465560, “Selectivity Literature for EUbOPEN Chemogenomic Library” (2024).

The target in experiment [1] is Insulin receptor-related protein (Homo sapiens) (UniProt P14616). The experiment in a line: Selectivity interaction (Upstate Kinase Profiler service (Millipore)) EUB0000056c INSRR. The note with it: at 1 µM.
Experiment [2] deals with T1, Receptor-interacting serine/threonine-protein kinase 4 (Homo sapiens) (UniProt P57078).
T1 sequence (whole entry): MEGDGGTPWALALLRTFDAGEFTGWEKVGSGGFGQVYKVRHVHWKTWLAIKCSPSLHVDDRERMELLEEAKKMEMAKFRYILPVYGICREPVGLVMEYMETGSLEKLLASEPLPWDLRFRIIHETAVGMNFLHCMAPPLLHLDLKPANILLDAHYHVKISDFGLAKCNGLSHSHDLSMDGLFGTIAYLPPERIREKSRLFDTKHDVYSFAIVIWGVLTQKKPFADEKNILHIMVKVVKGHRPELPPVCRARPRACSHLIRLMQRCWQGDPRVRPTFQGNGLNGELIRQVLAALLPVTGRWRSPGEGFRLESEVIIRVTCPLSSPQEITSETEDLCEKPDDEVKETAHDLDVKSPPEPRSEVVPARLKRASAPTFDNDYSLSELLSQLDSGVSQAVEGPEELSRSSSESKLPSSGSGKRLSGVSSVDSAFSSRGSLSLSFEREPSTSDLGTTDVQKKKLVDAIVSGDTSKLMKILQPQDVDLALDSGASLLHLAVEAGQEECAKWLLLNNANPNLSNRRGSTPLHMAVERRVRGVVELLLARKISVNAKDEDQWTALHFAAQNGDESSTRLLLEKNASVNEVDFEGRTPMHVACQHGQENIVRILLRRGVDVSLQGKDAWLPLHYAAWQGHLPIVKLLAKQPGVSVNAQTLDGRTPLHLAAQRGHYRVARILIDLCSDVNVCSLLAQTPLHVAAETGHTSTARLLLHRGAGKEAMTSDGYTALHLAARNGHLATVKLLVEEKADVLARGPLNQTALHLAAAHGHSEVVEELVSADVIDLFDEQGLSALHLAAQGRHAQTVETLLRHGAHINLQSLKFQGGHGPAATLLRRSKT
To be noted: at 10 µM.

The target of experiment [3] is Mitogen-activated protein kinase 14 (Homo sapiens, UniProt Q16539). The experiment is described as follows: Selectivity interaction (Enzyme panel (AstraZeneca, AlphaScreen, functional assay)) EUB0000621a MAPK14.
Sequence of Mitogen-activated protein kinase 14 (Q16539 whole entry): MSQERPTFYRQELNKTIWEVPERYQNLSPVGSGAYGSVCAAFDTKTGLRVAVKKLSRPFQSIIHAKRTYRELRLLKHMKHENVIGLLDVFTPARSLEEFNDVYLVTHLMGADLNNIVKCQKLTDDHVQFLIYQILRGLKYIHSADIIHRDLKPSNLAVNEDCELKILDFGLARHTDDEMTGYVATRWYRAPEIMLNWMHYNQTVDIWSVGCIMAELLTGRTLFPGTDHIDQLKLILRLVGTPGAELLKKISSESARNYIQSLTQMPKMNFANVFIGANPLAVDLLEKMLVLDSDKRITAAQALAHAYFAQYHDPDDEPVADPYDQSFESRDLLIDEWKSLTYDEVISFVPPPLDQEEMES
Experiment [4] has as its target Tyrosine-protein kinase JAK2 (Homo sapiens, UniProt O60674). The experiment in a line: Selectivity interaction (Enyzmatic assay) EUB0000601a JAK2.
For experiment [5], the target named is Insulin-like growth factor 1 receptor (Homo sapiens, UniProt P08069). The experiment in a line: Selectivity interaction (Millipore kinase profiler) EUB0000124b IGF1R. To be noted: at 10 µM.
Sequence of Insulin-like growth factor 1 receptor (P08069 31-736 limits assumed): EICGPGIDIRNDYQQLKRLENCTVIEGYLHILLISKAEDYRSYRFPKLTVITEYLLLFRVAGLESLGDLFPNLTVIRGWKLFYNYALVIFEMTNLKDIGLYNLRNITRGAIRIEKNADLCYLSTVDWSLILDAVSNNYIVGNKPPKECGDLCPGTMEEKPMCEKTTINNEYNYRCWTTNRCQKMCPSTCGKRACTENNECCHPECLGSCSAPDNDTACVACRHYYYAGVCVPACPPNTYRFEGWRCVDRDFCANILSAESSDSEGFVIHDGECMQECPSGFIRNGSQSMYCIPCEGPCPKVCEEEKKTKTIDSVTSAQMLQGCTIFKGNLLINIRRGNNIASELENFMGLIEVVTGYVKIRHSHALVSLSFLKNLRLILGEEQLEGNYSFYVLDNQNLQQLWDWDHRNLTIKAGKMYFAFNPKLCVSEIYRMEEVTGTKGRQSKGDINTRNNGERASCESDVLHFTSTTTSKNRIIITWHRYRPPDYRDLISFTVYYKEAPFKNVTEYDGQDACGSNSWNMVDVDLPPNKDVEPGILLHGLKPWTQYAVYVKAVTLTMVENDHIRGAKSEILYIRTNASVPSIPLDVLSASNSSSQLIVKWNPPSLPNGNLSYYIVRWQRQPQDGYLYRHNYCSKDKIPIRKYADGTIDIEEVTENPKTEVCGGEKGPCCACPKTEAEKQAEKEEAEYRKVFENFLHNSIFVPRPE
Sequence of Insulin-like growth factor 1 receptor (P08069 741-1367 limits assumed): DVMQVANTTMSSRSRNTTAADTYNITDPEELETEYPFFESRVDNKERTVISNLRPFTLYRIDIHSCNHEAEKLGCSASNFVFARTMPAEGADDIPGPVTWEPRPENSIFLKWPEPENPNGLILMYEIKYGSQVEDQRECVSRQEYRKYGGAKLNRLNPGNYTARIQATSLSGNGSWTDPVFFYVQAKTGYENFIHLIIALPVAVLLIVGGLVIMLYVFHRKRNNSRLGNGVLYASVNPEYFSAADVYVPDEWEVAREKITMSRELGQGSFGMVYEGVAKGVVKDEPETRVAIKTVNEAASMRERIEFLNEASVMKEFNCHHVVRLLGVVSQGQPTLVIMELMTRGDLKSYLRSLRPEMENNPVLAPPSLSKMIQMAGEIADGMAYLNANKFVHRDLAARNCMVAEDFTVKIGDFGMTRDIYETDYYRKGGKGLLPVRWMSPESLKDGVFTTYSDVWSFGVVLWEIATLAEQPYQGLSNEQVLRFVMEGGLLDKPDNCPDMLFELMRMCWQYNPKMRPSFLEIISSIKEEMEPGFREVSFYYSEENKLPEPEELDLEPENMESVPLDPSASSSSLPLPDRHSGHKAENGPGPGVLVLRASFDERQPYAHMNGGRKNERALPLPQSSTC
The target of experiment [6] is Dual specificity protein kinase CLK1 (Homo sapiens, UniProt P49759). The experiment is described as follows: Selectivity interaction (KinomeScan (DiscoverX)) EUB0001049a CLK1. To be noted: at 1 µM.
Experiment [7] concerns the target Phosphatidylinositol 4-kinase beta (Homo sapiens, UniProt Q9UBF8). The experiment in a line: Selectivity interaction (KinomeScan (DiscoverX)) EUB0000655a PI4KB. The note with it: at 10 µM.
Experiment [8] has as its target T2, Non-receptor tyrosine-protein kinase TNK1 (Homo sapiens) (UniProt Q13470).
T2 sequence (whole entry): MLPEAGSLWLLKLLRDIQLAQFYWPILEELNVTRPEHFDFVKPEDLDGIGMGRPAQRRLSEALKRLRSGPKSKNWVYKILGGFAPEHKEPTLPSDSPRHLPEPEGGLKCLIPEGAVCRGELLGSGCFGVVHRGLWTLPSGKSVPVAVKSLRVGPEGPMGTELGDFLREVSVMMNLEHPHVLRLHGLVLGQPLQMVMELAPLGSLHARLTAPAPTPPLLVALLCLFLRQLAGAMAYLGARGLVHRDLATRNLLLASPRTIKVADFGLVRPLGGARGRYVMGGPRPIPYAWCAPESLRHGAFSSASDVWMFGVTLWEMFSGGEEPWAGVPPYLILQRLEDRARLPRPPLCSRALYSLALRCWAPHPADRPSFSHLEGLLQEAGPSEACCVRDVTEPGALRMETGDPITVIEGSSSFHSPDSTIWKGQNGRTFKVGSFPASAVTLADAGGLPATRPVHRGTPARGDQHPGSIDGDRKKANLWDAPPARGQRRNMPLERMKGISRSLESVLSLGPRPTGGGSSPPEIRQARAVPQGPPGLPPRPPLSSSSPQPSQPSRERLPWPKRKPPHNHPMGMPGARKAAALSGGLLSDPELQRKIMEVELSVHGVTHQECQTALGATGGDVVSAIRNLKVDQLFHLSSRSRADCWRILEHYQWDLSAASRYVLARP
The experiment in a line: Selectivity interaction (KinomeScan (DiscoverX)) EUB0000655a TNK1. The note with it: at 10 µM.

In experiment [9] the target is MAP kinase-activated protein kinase 3 (Homo sapiens) (UniProt Q16644). The experiment in a line: Selectivity interaction (SelectScreen profiling (Invitrogen)) EUB0000607a MAPKAPK3. The note with it: at 2 µM.
Sequence of MAP kinase-activated protein kinase 3 (Homo sapiens) (Q16644 whole entry, looked up): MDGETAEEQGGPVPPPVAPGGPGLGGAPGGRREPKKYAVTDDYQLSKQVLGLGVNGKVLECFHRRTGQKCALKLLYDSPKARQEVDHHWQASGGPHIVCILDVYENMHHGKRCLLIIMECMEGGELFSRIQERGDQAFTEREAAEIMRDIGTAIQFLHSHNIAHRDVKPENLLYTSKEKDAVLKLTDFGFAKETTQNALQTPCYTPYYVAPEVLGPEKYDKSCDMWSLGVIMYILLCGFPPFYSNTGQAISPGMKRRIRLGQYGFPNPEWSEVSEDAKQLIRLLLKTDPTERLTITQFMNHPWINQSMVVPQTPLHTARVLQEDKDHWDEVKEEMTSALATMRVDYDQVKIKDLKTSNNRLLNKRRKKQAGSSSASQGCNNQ
Experiment [10] deals with T3, STE20-related kinase adapter protein alpha (Homo sapiens) (UniProt Q7RTN6).
T3 sequence (whole entry): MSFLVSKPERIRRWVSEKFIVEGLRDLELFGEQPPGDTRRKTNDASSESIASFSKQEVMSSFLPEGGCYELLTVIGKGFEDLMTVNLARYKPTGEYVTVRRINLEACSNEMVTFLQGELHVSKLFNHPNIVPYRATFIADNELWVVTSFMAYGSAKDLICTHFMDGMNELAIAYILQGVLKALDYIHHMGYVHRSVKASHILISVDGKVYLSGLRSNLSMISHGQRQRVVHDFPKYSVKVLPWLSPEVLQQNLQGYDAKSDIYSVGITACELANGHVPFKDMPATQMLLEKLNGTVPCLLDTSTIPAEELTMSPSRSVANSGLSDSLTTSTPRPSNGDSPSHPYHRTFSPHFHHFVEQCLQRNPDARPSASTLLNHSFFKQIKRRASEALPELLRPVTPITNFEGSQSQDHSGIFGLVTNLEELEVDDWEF
The experiment in a line: Selectivity interaction (ActivX KiNativ screen (kinase selectivity in THP-1 cell lysates)) EUB0000639a STRADA. To be noted: lysate, at 0.01 µM. The experiment is classed as subcellular.

For experiment [11], the target named is Ribosomal protein S6 kinase alpha-4 (Homo sapiens) (UniProt O75676). The experiment is described as follows: Selectivity interaction (KinomeScan (DiscoverX)) EUB0001619a RPS6KA4. The note with it: at 1 µM.
For experiment [12], the target named is Serine/threonine-protein kinase pim-3 (Homo sapiens) (UniProt Q86V86). The experiment is described as follows: Selectivity interaction (KinomeScan (DiscoverX)) EUB0000618a PIM3. To be noted: at 10 µM.

Sequence of Tyrosine-protein kinase JAK2 (O60674 whole entry): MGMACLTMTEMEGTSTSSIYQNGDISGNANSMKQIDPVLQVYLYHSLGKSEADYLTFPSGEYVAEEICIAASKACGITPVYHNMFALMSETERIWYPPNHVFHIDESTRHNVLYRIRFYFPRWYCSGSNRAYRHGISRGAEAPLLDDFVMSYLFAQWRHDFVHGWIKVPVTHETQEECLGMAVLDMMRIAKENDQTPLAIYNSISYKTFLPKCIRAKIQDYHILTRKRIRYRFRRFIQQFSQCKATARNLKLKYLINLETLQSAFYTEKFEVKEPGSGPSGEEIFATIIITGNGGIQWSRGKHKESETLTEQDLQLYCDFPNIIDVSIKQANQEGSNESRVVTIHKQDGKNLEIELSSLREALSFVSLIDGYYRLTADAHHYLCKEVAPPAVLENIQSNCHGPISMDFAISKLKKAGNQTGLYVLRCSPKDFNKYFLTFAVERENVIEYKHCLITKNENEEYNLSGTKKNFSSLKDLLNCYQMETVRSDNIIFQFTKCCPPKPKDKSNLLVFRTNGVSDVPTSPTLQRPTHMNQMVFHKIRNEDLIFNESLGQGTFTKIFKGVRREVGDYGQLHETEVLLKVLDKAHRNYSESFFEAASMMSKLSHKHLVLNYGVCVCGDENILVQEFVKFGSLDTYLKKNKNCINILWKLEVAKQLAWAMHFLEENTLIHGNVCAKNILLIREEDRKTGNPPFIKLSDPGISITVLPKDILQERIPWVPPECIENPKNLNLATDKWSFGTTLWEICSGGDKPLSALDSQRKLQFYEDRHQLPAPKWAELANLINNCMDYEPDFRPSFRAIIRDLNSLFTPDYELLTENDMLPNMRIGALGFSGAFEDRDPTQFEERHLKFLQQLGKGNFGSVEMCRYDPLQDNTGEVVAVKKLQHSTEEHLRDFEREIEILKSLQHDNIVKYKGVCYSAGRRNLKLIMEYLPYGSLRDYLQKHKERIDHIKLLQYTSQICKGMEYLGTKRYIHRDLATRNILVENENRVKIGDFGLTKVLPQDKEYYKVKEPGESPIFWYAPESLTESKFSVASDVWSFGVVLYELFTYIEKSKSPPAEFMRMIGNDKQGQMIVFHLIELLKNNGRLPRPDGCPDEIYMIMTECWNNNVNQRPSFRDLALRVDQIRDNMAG
Sequence of Insulin receptor-related protein (Homo sapiens) (P14616 27-742 limits assumed): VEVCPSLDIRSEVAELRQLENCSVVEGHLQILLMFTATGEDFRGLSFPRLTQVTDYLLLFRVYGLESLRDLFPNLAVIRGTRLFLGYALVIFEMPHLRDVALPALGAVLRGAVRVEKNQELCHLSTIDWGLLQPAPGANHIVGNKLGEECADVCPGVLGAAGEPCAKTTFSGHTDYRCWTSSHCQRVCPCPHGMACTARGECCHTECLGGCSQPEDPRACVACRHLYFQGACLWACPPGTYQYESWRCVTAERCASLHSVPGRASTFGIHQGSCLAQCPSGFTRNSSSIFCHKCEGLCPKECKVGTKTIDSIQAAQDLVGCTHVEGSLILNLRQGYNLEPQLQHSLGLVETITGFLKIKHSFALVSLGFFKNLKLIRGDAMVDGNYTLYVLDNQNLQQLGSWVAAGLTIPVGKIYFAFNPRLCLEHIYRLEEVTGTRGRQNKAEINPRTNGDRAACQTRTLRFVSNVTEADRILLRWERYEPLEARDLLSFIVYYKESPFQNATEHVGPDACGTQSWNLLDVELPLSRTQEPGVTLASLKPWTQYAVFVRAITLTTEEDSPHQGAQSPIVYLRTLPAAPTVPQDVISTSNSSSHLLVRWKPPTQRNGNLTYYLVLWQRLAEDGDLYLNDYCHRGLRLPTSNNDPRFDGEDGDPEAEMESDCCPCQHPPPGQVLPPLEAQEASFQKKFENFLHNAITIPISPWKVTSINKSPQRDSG
Sequence of Insulin receptor-related protein (Homo sapiens) (P14616 747-1297 limits assumed): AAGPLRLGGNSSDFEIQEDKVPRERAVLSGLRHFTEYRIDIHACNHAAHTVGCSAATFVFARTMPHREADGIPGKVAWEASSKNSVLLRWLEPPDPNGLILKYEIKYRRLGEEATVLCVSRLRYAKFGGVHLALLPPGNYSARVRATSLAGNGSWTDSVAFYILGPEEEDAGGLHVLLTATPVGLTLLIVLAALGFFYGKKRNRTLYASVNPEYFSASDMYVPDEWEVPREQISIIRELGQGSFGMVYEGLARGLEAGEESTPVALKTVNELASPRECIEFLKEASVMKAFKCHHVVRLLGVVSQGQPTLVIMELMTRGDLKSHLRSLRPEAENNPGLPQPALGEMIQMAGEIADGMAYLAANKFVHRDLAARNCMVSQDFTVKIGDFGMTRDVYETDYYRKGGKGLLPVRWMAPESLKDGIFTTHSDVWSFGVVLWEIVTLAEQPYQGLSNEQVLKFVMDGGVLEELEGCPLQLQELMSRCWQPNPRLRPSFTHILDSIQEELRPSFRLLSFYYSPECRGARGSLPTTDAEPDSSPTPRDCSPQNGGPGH

As to `Cc1ccc(-c2ccc3c(ccc4sc5c(c43)NC[C@@H](C)NC5=O)n2)cn1`, in experiment [1], the % of inhibition is -8%.
Compound `Cc1cc([C@@H](C)Nc2ccccc2C(=O)O)c2nc(N3CCOCC3)cc(=O)n2c1` [AZD-6482] displayed a % of control in experiment [2] of 99%. This compound came in with an IC50 in experiment [3] of over 671 µM.
In the case of `CCc1cc(Nc2nccc(-c3c(-c4ccc(OC)c(C(=O)Nc5c(F)cccc5F)c4)nc4ccccn34)n2)c(OC)cc1N1CCC(N2CCN(S(C)(=O)=O)CC2)CC1`, the IC50 in [4] is over 16 µM.
For the compound `CC(=O)Nc1cccc(-n2c(=O)n(C3CC3)c(=O)c3c(Nc4ccc(I)cc4F)n(C)c(=O)c(C)c32)c1`, the % of control in experiment [5] is 95%.
In the case of `COc1cc(Nc2nc(C)cc(-c3cnn4nc(OC)ccc34)n2)cc(C(F)(F)F)c1`, the % of control in [6] is 100%.
In the case of `CN(C)CCOc1ccc(-c2nc(-c3ccncc3)c(-c3ccc4c(c3)CC/C4=N\O)[nH]2)cc1`, the % of control was found to be 88% in [7] and 100% in [8].
For `CNC(=O)Nc1ccc(-c2nc(N3CC4CCC(C3)O4)c3cnn(C4CCC5(CC4)OCCO5)c3n2)cc1`, in experiment [9], the % of inhibition is 1%.
In the case of `CC[C@@H]1[C@H](F)C(=O)N[C@@H]1COc1nccc2cc(C(N)=O)c(OC)cc12` [ZIMLOVISERTIB], the % of inhibition in experiment [10] was -6.5%.
`N#Cc1cccc(-c2c[nH]c3ncnc(N4CCOCC4)c23)c1`: in experiment [11], the % of control is 71%.
For `O[C@H]1CC[C@H](Nc2ncc3nc(Nc4c(F)cc(F)cc4F)n([C@H]4CCOC4)c3n2)CC1`, the % of control in experiment [12] stood at 100%.

A word on the IC50: it is the midpoint of a concentration-inhibition curve. The low end stands for greater potency in that assay, the high end for weaker potency in that assay.
